Results on eight molecules are retold here after patent US9834559B2, “4-Amino-6-phenyl-5,6-dihydroimidazo[1,5-a]pyrazin-3(2H)-one derivatives as inhibitors of beta-secretase (BACE)” (Janssen Pharmaceutica NV, priority 2013, dated 2017).

SMILES strings stand for the structures.

The target in data set [1] is recombinant BACE1 protein (Homo sapiens, UniProt P56817). Nature of the data set: BACE1 biochemical FRET based assay. The following applies: BACE1 0.04 μg/ml, 20 μM substrate, pH 5.0, 450 min; read-out: Biochemical FRET based assay pIC50 (converted). The text has this: (§1) This assay is a Fluorescence Resonance Energy Transfer Assay (FRET) based assay. The substrate for this assay is an APP derived 13 amino acids peptide that contains the ‘Swedish’ Lys-Met/Asn-Leu mutation of the amyloid precursor protein (APP) beta-secretase cleavage site. This substrate also contains two fluorophores: (7-methoxycoumarin-4-yl) acetic acid (Mca) is a fluorescent donor with excitation wavelength at 320 nm and emission at 405 nm and 2,4-Dinitrophenyl (Dnp) is a proprietary quencher acceptor. […] Upon cleavage by BACE1, the fluorophore Mca is separated from the quenching group Dnp, restoring the full fluorescence yield of the donor. The increase in fluorescence is linearly related to the rate of proteolysis.
Briefly in a 384-well format recombinant BACE1 protein in a final concentration of 0.04 μg/ml is incubated for 450 minutes at room temperature with 20 μM substrate in incubation buffer (50 mM Citrate buffer pH 5.0, 0.05% PEG) in the presence of compound or DMSO. Next the amount of proteolysis is directly measured by fluorescence measurement (excitation at 320 nm and emission at 405 nm) at different incubation times (0, 30, 60, 90, 120 and 450 min). For every experiment a time curve (every 30 min between 0 min and 120 min) is used to determine the time where we find the lowest basal signal of the high control. The signal at this time (Tx) is used to subtract from the signal at 450 min. Results are expressed in RFU, as difference between T450 and Tx.
(§2) A best-fit curve is fitted by a minimum sum of squares method to the plot of % Controlmin versus compound concentration. From this an IC50 value (inhibitory concentration causing 50% inhibition of activity) can be obtained. • LC=Median of the low control values • =Low control: Reaction without enzyme • HC=Median of the High control values • =High Control: Reaction with enzyme • % Effect=100−[(sample−LC)/(HC−LC)*100] • % Control=(sample/HC)*100 • % Controlmin=(sample−LC)/(HC−LC)*100

The subject of data set [2] is Abeta 1-42 produced and secreted by human neuroblastoma SKNBE2 cells expressing hAPP695. Put plainly: Cellular αLisa assay in SKNBE2 cells, Abeta 1-42. The following applies: 18 hours incubation, read-out: Cellular αLisa assay in SKNBE2 cells Abeta 42 pIC50 (converted). The format is cell-based. How it is done: (§3) In two αLisa assays the levels of Abeta total and Abeta 1-42 produced and secreted into the medium of human neuroblastoma SKNBE2 cells are quantified. The assay is based on the human neuroblastoma SKNBE2 expressing the wild type Amyloid Precursor Protein (hAPP695). The compounds are diluted and added to these cells, incubated for 18 hours and then measurements of Abeta 1-42 and Abeta total are taken. Abeta total and Abeta 1-42 are measured by sandwich αLisa. αLisa is a sandwich assay using biotinylated antibody AbN/25 attached to streptavidin coated beads and antibody Ab4G8 or cAb42/26 conjugated acceptor beads for the detection of Abeta total and Abeta 1-42 respectively. In the presence of Abeta total or Abeta 1-42, the beads come into close proximity. The excitation of the donor beads provokes the release of singlet oxygen molecules that trigger a cascade of energy transfer in the acceptor beads, resulting in light emission. Light emission is measured after 1 hour incubation (excitation at […] and emission at 615 nm).
(§4) A best-fit curve is fitted by a minimum sum of squares method to the plot of % Controlmin versus compound concentration. From this an IC50 value (inhibitory concentration causing 50% inhibition of activity) can be obtained. • LC=Median of the low control values • =Low control: cells preincubated without compound, without biotinylated Ab in the αLisa • HC=Median of the High control values • =High Control: cells preincubated without compound • % Effect=100−[(sample−LC)/(HC−LC)*100] • % Control=(sample/HC)*100 • % Controlmin=(sample−LC)/(HC−LC)*100

The subject of data set [3] is Abeta total produced and secreted by human neuroblastoma SKNBE2 cells expressing hAPP695. Put plainly: Cellular αLisa assay in SKNBE2 cells, Abeta total. Format: cell-based. The following applies: 18 hours incubation, read-out: Cellular αLisa assay in SKNBE2 cells Abetatotal pIC50 (converted). How it is done: as §3, §4
Data set [4] deals with T1, recombinant BACE2 protein (Homo sapiens, UniProt Q9Y5Z0).
T1 sequence (Q9Y5Z0 63-518): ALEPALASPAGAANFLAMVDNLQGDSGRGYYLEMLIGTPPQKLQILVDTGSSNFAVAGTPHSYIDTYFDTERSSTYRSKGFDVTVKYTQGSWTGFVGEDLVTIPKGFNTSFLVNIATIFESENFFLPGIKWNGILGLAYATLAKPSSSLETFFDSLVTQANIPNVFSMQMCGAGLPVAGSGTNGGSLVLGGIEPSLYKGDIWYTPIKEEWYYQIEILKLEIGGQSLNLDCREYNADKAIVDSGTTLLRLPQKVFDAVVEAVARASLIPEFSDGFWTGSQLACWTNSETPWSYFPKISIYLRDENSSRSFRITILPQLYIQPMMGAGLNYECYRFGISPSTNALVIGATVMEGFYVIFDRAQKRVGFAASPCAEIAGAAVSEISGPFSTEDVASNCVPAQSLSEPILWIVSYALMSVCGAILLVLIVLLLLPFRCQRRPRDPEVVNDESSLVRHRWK
Nature of the data set: BACE2 biochemical FRET based assay. Particulars: BACE2 0.4 μg/ml, 10 μM substrate, pH 5.0, 450 min; read-out: BACE2 Biochemical FRET based assay pIC50 (converted).
Source text: as §1, with “assay” for “assay is an APP derived 13 amino acids peptide that”, “the beta-secretase,” for “BACE1,”
Briefly in a 384-well format recombinant BACE2 protein in a final concentration of 0.4 μg/ml is incubated for 450 minutes at room temperature with 10 μM substrate in incubation buffer (50 mM Citrate buffer pH 5.0, 0.05% PEG, no DMSO) in the absence or presence of compound. Next the amount of proteolysis is directly measured by fluorescence measurement at T=0 and T=450 (excitation at 320 nm and emission at 405 nm). Results are expressed in RFU (Relative Fluorescence Units), as difference between T450 and T0.
as §2

recombinant BACE1 protein, sequence (P56817 46-501): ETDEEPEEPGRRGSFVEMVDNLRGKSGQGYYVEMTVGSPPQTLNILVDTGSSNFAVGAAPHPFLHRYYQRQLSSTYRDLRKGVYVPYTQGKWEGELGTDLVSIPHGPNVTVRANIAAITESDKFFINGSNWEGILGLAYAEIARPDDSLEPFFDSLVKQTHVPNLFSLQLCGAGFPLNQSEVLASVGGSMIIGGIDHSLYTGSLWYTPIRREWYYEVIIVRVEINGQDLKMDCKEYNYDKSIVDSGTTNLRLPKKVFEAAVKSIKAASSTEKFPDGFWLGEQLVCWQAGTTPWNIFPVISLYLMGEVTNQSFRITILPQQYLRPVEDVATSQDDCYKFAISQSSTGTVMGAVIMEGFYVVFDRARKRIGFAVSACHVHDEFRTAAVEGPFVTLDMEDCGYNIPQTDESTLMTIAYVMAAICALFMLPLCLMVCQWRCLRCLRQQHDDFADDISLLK

For `Cn1cc2n(c1=O)C[C@@](C)(c1cc(NC(=O)c3ccc(F)cn3)ccc1F)N=C2N` [Compound 6, N-{3-[(6R)-8-amino-2,6-dimethyl-3-oxo-2,3,5,6-tetrahydroimidazo[1,5-a]pyrazin-6-yl]-4-fluorophenyl}-5-fluoropyridine-2-carboxamide], the IC50 was 15.1 nM in data set [1], 87.1 nM in data set [2], 89.1 nM in data set [3] and 13.2 nM in data set [4].
`C[C@@]1(c2cc(NC(=O)c3ccc(F)cn3)ccc2F)Cn2c(cn(CC(F)(F)F)c2=O)C(N)=N1` [Compound 7, N-{3-[(6R)-8-amino-6-methyl-3-oxo-2-(2,2,2-trifluoroethyl)-2,3,5,6-tetrahydroimidazo[1,5-a]pyrazin-6-yl]-4-fluorophenyl}-5-fluoropyridine-2-carboxamide] had a melting point of 239.9 °C. The IC50 in data set [1] is 12.3 nM. In data set [2], the IC50 was 18.6 nM. The IC50 in data set [3] was 16.6 nM. The IC50 in data set [4] was 7.41 nM.
For the molecule `Cn1cc2n(c1=O)C[C@@](C)(c1cc(-c3cncnc3)ccc1F)N=C2N` [Compound 2, (6R)-8-Amino-6-(2-fluoro-5-pyrimidin-5-ylphenyl)-2,6-dimethyl-5,6-dihydro-imidazo[1,5-a]pyrazin-3(2H)-one], the melting point is 239.1 °C. In data set [1], the IC50 is 490 nM. The IC50 in data set [2] was 1260 nM. In addition, the IC50 in data set [3] was 1020 nM. The IC50 in data set [4] was 7080 nM.
`COc1cnc(C(=O)Nc2ccc(F)c([C@]3(C)Cn4c(cn(C)c4=O)C(N)=N3)c2)cn1` [Compound 5, N-{3-[(6R)-8-amino-2,6-dimethyl-3-oxo-2,3,5,6-tetrahydroimidazo[1,5-a]pyrazin-6-yl]-4-fluorophenyl}-5-methoxypyrazine-2-carboxamide]: the IC50 was 9.55 nM in data set [1], 36.3 nM in data set [2], 29.5 nM in data set [3] and 100 nM in data set [4].
`C[C@@]1(c2cc(NC(=O)c3ccc(C#N)cn3)ccc2F)Cn2c(cn(CC(F)(F)F)c2=O)C(N)=N1` [Compound 10, N-{3-[(6R)-8-amino-6-methyl-3-oxo-2-(2,2,2-trifluoroethyl)-2,3,5,6-tetrahydroimidazo[1,5-a]pyrazin-6-yl]-4-fluorophenyl}-5-cyanopyridine-2-carboxamide] yielded a melting point of 235 °C. For the same molecule, in data set [1], the IC50 was 5.62 nM. Besides, the IC50 in data set [2] is 12.6 nM. In data set [3], the IC50 was 10.7 nM. In data set [4], the IC50 is 12 nM.
The corresponding values for `C[C@@]1(c2cc(NC(=O)c3ccc(Cl)cn3)ccc2F)Cn2c(cn(CC(F)(F)F)c2=O)C(N)=N1` [Compound 8, N-{3-[(6R)-8-amino-6-methyl-3-oxo-2-(2,2,2-trifluoroethyl)-2,3,5,6-tetrahydroimidazo[1,5-a]pyrazin-6-yl]-4-fluorophenyl}-5-chloropyridine-2-carboxamide] are 219.9 °C, 4.68 nM, 5.62 nM, 4.79 nM and 6.61 nM.
With `Cc1cc(C#N)cnc1C(=O)Nc1ccc(F)c([C@]2(C)Cn3c(cn(C)c3=O)C(N)=N2)c1` [Compound 9, N-{3-[(6R)-8-amino-2,6-dimethyl-3-oxo-2,3,5,6-tetrahydroimidazo[1,5-a]pyrazin-6-yl]-4-fluorophenyl}-5-cyano-3-methylpyridine-2-carboxamide], the IC50 in data set [1] is 7.76 nM; in data set [2], 38.9 nM; in data set [3] it was 33.1 nM; in data set [4], 22.9 nM.
The molecule `COc1cnc(C(=O)Nc2ccc(F)c([C@]3(C)Cn4c(cn(CC(F)(F)F)c4=O)C(N)=N3)c2)cn1` [Compound 11, N-{3-[(6R)-8-amino-6-methyl-3-oxo-2-(2,2,2-trifluoroethyl)-2,3,5,6-tetrahydroimidazo[1,5-a]pyrazin-6-yl]-4-fluorophenyl}-5-methoxypyrazine-2-carboxamide] yielded a melting point of 280.5 °C. Besides, the IC50 in data set [1] is 8.71 nM. For the same molecule, in data set [2], the IC50 was 12.3 nM. Also, the IC50 in data set [3] is 10 nM. The IC50 in data set [4] is 55 nM.
